{"source": "patent US8912120B2", "about": "“Herbicidal compositions comprising 4-amino-3-chloro-5-fluoro-6-(4-chloro-2-fluoro-3-methoxyphenyl) pyridine-2-carboxylic acid or a derivative thereof and synthetic auxin herbicides” (Dow AgroSciences, LLC., priority 2012, dated 2014)", "key": {"[1]": {"tested_on": "ELEIN", "test": "Example III: postemergence foliar-applied herbicidal mixtures, weeds common to row crops such as corn and soybeans (greenhouse), ELEIN", "assay_type": "in vivo, Eleusine indica (goosegrass)", "protocol": "The plants were grown for 7-31 days (d) in a greenhouse with an approximate 15 hour (h) photoperiod which was maintained at about 23-29° C. during the day and 22-28° C. during the night."}, "[2]": {"tested_on": "CASOB", "test": "Example V: postemergence herbicidal activity of mixtures in forage crops (greenhouse), CASOB", "assay_type": "in vivo, Cassia obtusifolia (sicklepod)", "conditions": "alone, foliar, approximately 21 days", "protocol": "(§1) Seeds or root cuttings of the desired test plant species were planted in Sun Gro MetroMix® 306 planting mixture, which typically has a pH of 6.0 to 6.8 and an organic matter content of about 30 percent, in plastic pots with a surface area of 126.6 square centimeters (cm^2). […] The plants were grown for 14-60 days in a greenhouse with an approximate 14 hour photoperiod which was maintained at approximately 28° C. during the day and 24° C. during the night.\nSpray solutions of the second herbicide or experimental compound mixtures were prepared by adding the stock solutions to the appropriate amount of dilution solution to form 12 mL spray solution with active ingredients in two-way combinations."}, "[3]": {"tested_on": "STEME", "test": "Example IV: postemergence foliar-applied herbicidal mixtures, cereal crops, STEME", "assay_type": "in vivo, Stellaria media (common chickweed)", "conditions": "alone, 8.75 gai/ha, 20-22 days", "protocol": "as §1, with “Seeds” for “Seeds or root cuttings”, “MetroMix” for “MetroMix®”, “103.2” for “126.6”, “7-36” for “14-60”, “about 18°” for “approximately 28°”, “17°” for “24°”\nSpray solutions of the second cereal herbicide and experimental compound mixtures were prepared by adding the stock solutions to the appropriate amount of dilution solution to form 12 mL spray solution with active ingredients in two- and three-way combinations."}}}
{"smiles": "COc1c(Cl)ccc(-c2nc(C(=O)OCc3ccccc3)c(Cl)c(N)c2F)c1F", "note": "[Compound A Benzyl Ester, benzyl ester of 4-amino-3-chloro-5-fluoro-6-(4-chloro-2-fluoro-3-methoxy-phenyl)pyridine-2-carboxylic acid]", "values": [{"measurement": "Visual Weed Control (%) Obs", "setting": "[1]; 14 DAA, 3.75 gae/ha", "value": 0, "unit": "%"}, {"measurement": "Visual Weed Control (%) Obs", "setting": "[1]; 17 DAA, 7.5 gae/ha", "value": 20, "unit": "%"}, {"measurement": "CASOB Obs (observed value)", "setting": "[2]; 1.1 gae/ha", "value": 28, "unit": "%"}, {"measurement": "CASOB Obs (observed value)", "setting": "[2]; 2.2 gae/ha", "value": 33, "unit": "%"}, {"measurement": "CASOB Obs (observed value)", "setting": "[2]; 4.4 gae/ha", "value": 38, "unit": "%"}, {"measurement": "STEME Ob (observed value)", "setting": "[3]", "value": 70, "unit": "%"}]}
